Experimental data as given in patent US20190330224A1, “ACC INHIBITORS AND USES THEREOF” (Gilead Apollo, LLC, priority 2015, published 2019).
≈ marks a conversion by molar mass, not a printed value. Read-outs that look alike come from different tables or passages of the source.

Tests used:
[1] = system: Fusarium virguliforme (Fv); assay: Growth inhibition assay of fungal pathogens, Fv; format: cell-based; details: read-out: Concentration at 90% Inhibition, Fv
Experimental: (§1) Compounds of the present invention were evaluated in a growth inhibition assay to determine the ability to control the growth of fungal pathogens, such as Botrtyis cinerea (Bc). Collectotrichum graminicola (Cg), Diplodia maydis (Dm), Fusarium moniliforme (Fm), Fusarium virguliforme (Fv), Phytophthora capsici (Pc), Rhizoctonia solani (Rs), and Septoria tritici (St). Compounds to be tested were dissolved in DMSO at 2.5 mg/ml to produce compound stock solutions (“stocks”). Stocks were diluted with DMSO by a five-fold dilution in a 96-well stock plate, and two sets of final concentrations of 50, 10, and 2 ppm or 2, 0.4, and 0.08 ppm were obtained in vitro. A set of positive controls was also prepared, with various concentrations of Soraphen (2, 0.4, and 0.08 ppm), Metalaxyl (1.1, 0.22, and 0.04 ppm), and Metconazole (2, 0.4, and 0.08 ppm or 0.2, 0.04, and 0.008 ppm) after the five-fold dilutions. Negative controls on each plate included 2% DMSO, water, and a blank (media+2% DMSO). Fungal spores were isolated from previously sub-cultured plates of Botrtyis cinerea (Bc), Collectotrichum graminicola (Cg), Diplodia maydis (Dm), Fusarium moniliforme (Fm), Fusarium virguliforme (Fv), Phytophthora capsici (Pc), and Septoria tritici (St). The isolated spores were diluted to individual concentrations with a 17% V8 liquid media. For Rhizoctonia solani (Rs) and Pythium irregulare, 1.5 mm mycelial plugs were used in place of spores and ¼ Potato Dextrose Broth (PDB) was used for dilution. The spore concentrations and plug sizes were based on growth curves generated at 48 hours for each pathogen. In a second 96-well plate, the spores or mycelial plugs, media, diluted compound solutions, and controls were combined. Once the compound was added, a true final concentration of compound in each well was measured by an OD600 reading, which adjusted for any compound precipitation that might have occurred in the well. Plate readings were repeated at both 24 and 48 hours. The blank negative control was used as a background subtraction. Additional visual ratings were performed at both 24 and 48 hours for checking on precipitation and confirming efficacy. Visual and OD600 ratings of the compounds at 48 hours were compared to the 2% DMSO negative control, and the percent of pathogen growth inhibition was determined based on those values.

[2] = compound concentration 10 ppm, foliar spray, evaluated 7 days after inoculation
Botrtyis cinerea (Bc) = assay: Growth inhibition assay of fungal pathogens, Bc; format: cell-based; details: read-out: Concentration at 90% Inhibition, Bc
Experimental: as §1

[3] = system: Phytophthora capsici (Pc); assay: Growth inhibition assay of fungal pathogens, Pc; format: cell-based; details: read-out: Concentration at 90% Inhibition, Pc
Experimental: as §1

Rhizoctonia solani (Rs) = assay: Growth inhibition assay of fungal pathogens, Rs; format: cell-based; details: read-out: Concentration at 90% Inhibition, Rs
Experimental: as §1

[4] = system: Collectotrichum graminicola (Cg); assay: Growth inhibition assay of fungal pathogens, Cg; format: cell-based; details: read-out: Concentration at 90% Inhibition, Cg
Experimental: as §1

[5] = system: Blumeria graminis f sp. hordei; assay: Foliar protection test, barley powdery mildew control; format: in vivo, Blumeria graminis f sp. hordei on Hordeum vulgare cv. Perry; details: 168 h, read-out: Barley Powdery Mildew Control at 50 ppm
Experimental: Compounds of the present invention were evaluated in a foliar protection test to determine the ability to control barley powdery mildew. Plants (Hordeum vulgare cv. Perry) were grown for 6 days in 2-inch square pots containing Metromix 200 medium amended with fertilizer. For propagation, plants were maintained in a growth chamber at conditions of 20 to 21° C., 16 hour light cycle, 400 uM of light, 70% humidity, and with sub-irrigation as needed. After inoculation with the pathogen of Blumeria graminis f sp. hordei, plants were kept at conditions of 20 to 22° C., 70% relative humidity, and 200 uM of light to facilitate infection and disease development. At 6 days after planting (1st true leaf fully expanded), the test compounds were dissolved in a solution of 5% acetone and 0.005% Tween 80 surfactant. An atomizer was used for applying the solution onto both sides of the leaves until thoroughly wetted. The amount of the compound applied to the leaves was typically 200, 100, 50, 10, or 2 ppm, but it may vary. At 24 hours after treatment, the plants were moved to a cooler chamber and inoculated by shaking well-colonized, untreated stock plants above the treated plants. This allowed producing a settling cloud of spores and resulting in uniform infection. Efficacy was evaluated in 7 days later by examining leaves for colonization and growth of mildew. Table 5 lists the results of barley powdery mildew control at a compound concentration of 50 ppm or 10 ppm. Compounds having an activity designated as “AA” provided a compound having >85% control of barley powdery mildew; compounds having an activity designated as “A” provided a compound having from 70% to 84% control of barley powdery mildew; compounds having an activity designated as “B” provided a compound having from 50 to 69% control of barley powdery mildew; compounds having an activity designated as “C” provided a compound having from 25 to 49% control of barley powdery mildew; and compounds having an activity designated as “D” provided a compound having <25% control of barley powdery mildew.

[6] = system: Fusarium moniliforme (Fm); assay: Growth inhibition assay of fungal pathogens, Fm; format: cell-based; details: Fusarium verticillioides, read-out: Concentration at 90% Inhibition, Fm
Experimental: as §1

Diplodia maydis (Dm) = assay: Growth inhibition assay of fungal pathogens, Dm; format: cell-based; details: Stenocarpella maydis, read-out: Concentration at 90% Inhibition, Dm
Experimental: as §1

Fungal ACC2 = Fungal ACC2 (UniProt Q00955); details: read-out: Fungal ACC2 (IC50, in vitro ACC2 inhibition)
Sequence of Fungal ACC2 (Q00955 whole entry): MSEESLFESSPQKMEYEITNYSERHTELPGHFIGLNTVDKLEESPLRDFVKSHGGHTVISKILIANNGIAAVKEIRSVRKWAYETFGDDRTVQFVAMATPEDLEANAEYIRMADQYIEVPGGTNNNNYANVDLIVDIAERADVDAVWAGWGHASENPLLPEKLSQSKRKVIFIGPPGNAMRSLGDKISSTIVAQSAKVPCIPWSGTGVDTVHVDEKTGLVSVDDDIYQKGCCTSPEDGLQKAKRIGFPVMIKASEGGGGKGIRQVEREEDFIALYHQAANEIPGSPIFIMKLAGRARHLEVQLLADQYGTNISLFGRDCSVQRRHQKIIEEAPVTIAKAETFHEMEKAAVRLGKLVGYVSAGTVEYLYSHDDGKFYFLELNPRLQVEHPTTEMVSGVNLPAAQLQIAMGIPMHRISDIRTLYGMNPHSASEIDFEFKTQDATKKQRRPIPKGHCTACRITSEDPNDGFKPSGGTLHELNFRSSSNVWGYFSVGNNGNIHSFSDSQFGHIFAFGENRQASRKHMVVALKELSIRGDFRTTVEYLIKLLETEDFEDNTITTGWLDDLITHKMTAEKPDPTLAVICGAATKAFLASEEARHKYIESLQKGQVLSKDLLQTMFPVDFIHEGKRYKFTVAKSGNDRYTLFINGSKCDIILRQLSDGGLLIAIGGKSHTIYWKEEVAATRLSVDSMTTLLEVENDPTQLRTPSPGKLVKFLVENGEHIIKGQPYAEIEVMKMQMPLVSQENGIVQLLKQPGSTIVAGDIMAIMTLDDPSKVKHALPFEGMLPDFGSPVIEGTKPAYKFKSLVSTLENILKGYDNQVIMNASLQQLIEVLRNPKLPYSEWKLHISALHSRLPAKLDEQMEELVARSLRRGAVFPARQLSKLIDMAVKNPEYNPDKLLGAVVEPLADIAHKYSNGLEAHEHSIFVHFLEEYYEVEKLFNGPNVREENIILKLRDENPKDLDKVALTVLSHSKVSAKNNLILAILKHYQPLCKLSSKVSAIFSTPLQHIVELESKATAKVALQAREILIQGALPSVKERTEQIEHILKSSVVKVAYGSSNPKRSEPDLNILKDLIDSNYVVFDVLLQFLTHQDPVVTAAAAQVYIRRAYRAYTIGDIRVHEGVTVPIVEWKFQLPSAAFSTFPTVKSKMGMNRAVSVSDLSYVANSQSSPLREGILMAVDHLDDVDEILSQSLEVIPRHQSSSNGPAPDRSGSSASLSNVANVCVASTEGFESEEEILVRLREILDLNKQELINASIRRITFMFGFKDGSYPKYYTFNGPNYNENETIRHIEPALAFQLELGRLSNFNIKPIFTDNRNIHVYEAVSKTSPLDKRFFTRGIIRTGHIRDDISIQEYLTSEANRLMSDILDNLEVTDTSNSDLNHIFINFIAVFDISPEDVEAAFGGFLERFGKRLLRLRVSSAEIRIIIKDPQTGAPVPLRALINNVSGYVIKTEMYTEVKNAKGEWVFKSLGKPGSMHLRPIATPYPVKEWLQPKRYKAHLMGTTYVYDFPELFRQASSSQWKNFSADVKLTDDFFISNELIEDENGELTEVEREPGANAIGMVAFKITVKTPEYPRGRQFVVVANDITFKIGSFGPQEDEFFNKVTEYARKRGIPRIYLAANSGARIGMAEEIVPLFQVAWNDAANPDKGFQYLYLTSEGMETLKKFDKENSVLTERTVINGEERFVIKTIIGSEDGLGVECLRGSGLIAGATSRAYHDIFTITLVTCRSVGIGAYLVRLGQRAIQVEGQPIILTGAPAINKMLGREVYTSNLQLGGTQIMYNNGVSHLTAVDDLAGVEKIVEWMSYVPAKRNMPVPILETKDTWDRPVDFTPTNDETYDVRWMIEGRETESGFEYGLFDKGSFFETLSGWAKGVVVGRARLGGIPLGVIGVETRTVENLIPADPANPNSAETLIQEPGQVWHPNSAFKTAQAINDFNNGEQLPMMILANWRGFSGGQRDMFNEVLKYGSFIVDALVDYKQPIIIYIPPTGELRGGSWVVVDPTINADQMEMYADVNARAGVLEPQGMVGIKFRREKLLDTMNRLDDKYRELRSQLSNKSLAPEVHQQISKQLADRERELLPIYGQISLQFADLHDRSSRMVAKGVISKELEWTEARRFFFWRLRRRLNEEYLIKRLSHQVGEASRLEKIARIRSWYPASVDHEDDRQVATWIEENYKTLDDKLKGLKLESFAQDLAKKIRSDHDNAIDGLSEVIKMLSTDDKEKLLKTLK

Septoria tritici (St) = assay: Growth inhibition assay of fungal pathogens, St; format: cell-based; details: Zymoseptoria tritici, read-out: Concentration at 90% Inhibition, St
Experimental: as §1

Human ACC2 = Human ACC2 (Homo sapiens, UniProt O00763); assay: In vitro ACC2 inhibition assay (ADP-Glo), human ACC2; format: biochemical; details: 5 nM ACC2, 20 μM ATP, 20 μM acetyl-CoA
Sequence of Human ACC2 (O00763 whole entry): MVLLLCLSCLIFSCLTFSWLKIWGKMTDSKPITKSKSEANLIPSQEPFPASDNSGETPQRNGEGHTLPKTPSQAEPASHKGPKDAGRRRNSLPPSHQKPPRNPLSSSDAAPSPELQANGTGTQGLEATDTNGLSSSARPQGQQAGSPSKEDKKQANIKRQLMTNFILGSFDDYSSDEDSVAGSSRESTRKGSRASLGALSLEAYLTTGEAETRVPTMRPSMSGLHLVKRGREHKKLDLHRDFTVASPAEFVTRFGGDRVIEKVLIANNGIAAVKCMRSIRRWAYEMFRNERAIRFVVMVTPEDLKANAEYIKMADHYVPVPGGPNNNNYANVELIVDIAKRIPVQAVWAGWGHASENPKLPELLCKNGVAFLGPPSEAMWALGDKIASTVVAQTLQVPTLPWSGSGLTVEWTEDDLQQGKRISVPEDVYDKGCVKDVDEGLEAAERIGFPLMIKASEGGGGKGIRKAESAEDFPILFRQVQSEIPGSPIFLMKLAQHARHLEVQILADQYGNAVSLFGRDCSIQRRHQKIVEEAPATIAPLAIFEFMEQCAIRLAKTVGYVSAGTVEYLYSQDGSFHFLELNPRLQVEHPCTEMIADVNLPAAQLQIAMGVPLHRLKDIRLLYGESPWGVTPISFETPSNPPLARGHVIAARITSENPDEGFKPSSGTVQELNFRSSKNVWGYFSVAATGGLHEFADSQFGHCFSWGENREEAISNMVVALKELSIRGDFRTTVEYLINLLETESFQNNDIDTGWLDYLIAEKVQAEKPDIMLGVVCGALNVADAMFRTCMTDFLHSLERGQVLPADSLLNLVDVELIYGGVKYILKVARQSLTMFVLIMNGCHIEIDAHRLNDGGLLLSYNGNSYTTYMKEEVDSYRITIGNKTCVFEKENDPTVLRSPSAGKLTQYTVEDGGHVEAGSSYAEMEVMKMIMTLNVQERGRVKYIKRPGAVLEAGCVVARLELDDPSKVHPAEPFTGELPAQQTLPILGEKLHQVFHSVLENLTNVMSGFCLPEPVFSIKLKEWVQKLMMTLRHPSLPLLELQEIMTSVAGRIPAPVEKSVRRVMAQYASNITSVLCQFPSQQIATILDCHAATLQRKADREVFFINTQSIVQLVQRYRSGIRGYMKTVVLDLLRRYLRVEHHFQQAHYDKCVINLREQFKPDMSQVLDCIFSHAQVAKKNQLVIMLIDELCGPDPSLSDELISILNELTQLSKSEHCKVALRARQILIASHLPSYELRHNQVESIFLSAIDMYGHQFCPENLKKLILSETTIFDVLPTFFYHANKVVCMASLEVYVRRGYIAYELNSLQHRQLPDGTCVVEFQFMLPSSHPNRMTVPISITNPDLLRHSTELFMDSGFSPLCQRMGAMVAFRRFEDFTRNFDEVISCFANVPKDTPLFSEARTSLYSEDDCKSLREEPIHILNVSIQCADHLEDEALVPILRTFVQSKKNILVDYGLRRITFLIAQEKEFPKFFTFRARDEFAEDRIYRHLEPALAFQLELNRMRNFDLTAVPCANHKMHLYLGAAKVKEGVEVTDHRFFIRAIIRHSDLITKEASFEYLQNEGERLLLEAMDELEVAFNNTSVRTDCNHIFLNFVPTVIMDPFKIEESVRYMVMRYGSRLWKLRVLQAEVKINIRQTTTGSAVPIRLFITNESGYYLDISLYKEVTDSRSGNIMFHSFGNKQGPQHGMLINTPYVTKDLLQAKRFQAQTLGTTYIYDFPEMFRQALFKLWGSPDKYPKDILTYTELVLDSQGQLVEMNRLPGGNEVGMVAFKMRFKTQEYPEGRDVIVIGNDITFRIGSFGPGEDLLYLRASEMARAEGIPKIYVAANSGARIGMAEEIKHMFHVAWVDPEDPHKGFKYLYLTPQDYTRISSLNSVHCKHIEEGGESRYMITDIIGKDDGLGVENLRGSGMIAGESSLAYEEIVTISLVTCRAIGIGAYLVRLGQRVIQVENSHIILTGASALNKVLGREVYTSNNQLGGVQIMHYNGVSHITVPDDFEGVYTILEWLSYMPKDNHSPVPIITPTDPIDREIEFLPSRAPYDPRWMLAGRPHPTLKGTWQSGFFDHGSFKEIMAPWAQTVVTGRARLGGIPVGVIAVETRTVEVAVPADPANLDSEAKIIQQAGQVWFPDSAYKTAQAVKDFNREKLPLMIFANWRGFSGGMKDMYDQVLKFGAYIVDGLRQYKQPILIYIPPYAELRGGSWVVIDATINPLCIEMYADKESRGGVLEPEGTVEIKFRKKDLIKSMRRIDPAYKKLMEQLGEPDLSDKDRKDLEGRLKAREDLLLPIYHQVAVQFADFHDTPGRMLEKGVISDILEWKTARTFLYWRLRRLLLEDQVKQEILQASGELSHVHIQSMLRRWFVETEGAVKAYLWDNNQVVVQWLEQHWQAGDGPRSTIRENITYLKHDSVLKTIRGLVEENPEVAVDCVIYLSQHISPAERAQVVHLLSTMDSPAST

C. krusei ATCC 6258 = assay: Anti-Fungal Activity Assay (broth microtiter MIC), C. krusei; format: cell-based, Candida krusei; details: Pichia kudriavzevii, ATCC6258, 48 h, 3 replicates; MIC recorded at 48 h; read-out: MIC C. krusei ATCC 6258
In short: (§2)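 Broth microdilution per CLSI M27-A3 in RPMI 1640+MOPS, inoculum from overnight Sabouraud dextrose agar colonies at 35° C; compounds from 1 mg/mL DMSO stocks. MIC read visually against growth control at 48 h, with an added 24 h reading for soraphen.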

C. albicans ATCC 90028 = assay: Anti-Fungal Activity Assay (broth microtiter MIC), C. albicans; format: cell-based, Candida albicans; details: Candida albicans, ATCC90028, 48 h, 3 replicates; MIC recorded at 48 h; read-out: MIC C. albicans ATCC 90028
In short: as §2

[7] = system: C. parapsilosis ATCC 22019; assay: Anti-Fungal Activity Assay (broth microtiter MIC), C. parapsilosis; format: cell-based, Candida parapsilosis; details: Lodderomyces parapsilosis, ATCC22019, 48 h, 3 replicates; MIC recorded at 48 h; read-out: MIC C. parapsilosis ATCC 22019
In short: as §2

[8] = compound concentration 50 ppm, foliar spray, evaluated 7 days after inoculation

Structure (SMILES)	IC90 ([1]; 48 h)	Barley Powdery Mildew Control at 10 ppm [2]	IC90 (Botrtyis cinerea (Bc); 48 h)	IC90 ([3]; 48 h)	IC90 (Rhizoctonia solani (Rs); 48 h)	IC90 ([4]; 48 h)	pest or weed control at 50 ppm ([5]; foliar)	IC90 ([6]; 48 h)	IC90 (Diplodia maydis (Dm); 48 h)	IC50 (Fungal ACC2)	IC50 (Human ACC2)	IC90 ([1]; 48 hours)	IC90 (Botrtyis cinerea (Bc); 48 hours)	IC90 ([3]; 48 hours)	IC90 (Rhizoctonia solani (Rs); 48 hours)	IC90 ([4]; 48 hours)	pest or weed control at 50 ppm [5, 8]	IC90 ([6]; 48 hours)	IC90 (Diplodia maydis (Dm); 48 hours)	IC90 (Septoria tritici (St); 48 hours)	also measured
COCCO[C@@H](Cn1c(=O)n([C@H]2CCNC2=O)c(=O)c2c(C)c(-n3nccn3)sc21)c1cc(F)ccc1OC [Compound I-25, 1-((R)-2-(5-fluoro-2-methoxyphenyl)-2-(2-methoxy-ethoxy)ethyl)-5-methyl-3-((S)-2-oxopyrrolidin-3-yl)-6-(2H-1,2,3-triazol-2-yl)thieno[2,3-d]pyrimidine-2,4(1H,3H)-dione]	> 50 µg/mL	D (provided a compound having <25% control of barley powdery mildew)	> 50 µg/mL	> 50 µg/mL	> 50 µg/mL	> 50 µg/mL	50 to 69%	10 µg/mL (≈ 17.9 µM)	> 50 µg/mL	2 to 10 nM	10 to 100 nM	–	–	–	–	–	–	–	–	–	IC90 (Septoria tritici (St); 48 h): > 50 µg/mL
COc1ccc(F)cc1[C@H](Cn1c(=O)n([C@@H]2CCCNC2=O)c(=O)c2c(C)c(-n3nccn3)sc21)OCCC(=O)O [Compound I-178, 3-((R)-1-(5-fluoro-2-methoxyphenyl)-2-(5-methyl-2,4-dioxo-3-((R)-2-oxopiperidin-3-yl)-6-(2H-1,2,3-triazol-2-yl)-3,4-dihydrothieno[2,3-d]pyrimidin-1(2H)-yl)ethoxy)propanoic acid]	–	D (provided a compound having <25% control of barley powdery mildew)	–	–	–	–	–	–	–	0.7 to 2 nM	10 to 100 nM	> 50 µg/mL	> 50 µg/mL	> 50 µg/mL	2 µg/mL (≈ 3.41 µM)	10 µg/mL (≈ 17 µM)	25 to 49%	10 µg/mL (≈ 17 µM)	> 50 µg/mL	> 50 µg/mL	–
COc1ccc(F)cc1[C@H](Cn1c(=O)n([C@@H]2CCNC2=O)c(=O)c2c(C)c(-n3nccn3)sc21)OCCC#N [Compound I-107, 3-((R)-1-(5-fluoro-2-methoxyphenyl)-2-(5-methyl-2,4-dioxo-3-((R)-2-oxopyrrolidin-3-yl)-6-(2H-1,2,3-triazol-2-yl)-3,4-dihydrothieno[2,3-d]pyrimidin-1(2H)-yl)ethoxy)propanenitrile]	–	C (provided a compound having from 25 to 49% control of barley powdery mildew)	–	–	–	–	–	–	–	0.7 to 2 nM	2 to 10 nM	2 µg/mL (≈ 3.61 µM)	2 µg/mL (≈ 3.61 µM)	> 50 µg/mL	2 µg/mL (≈ 3.61 µM)	10 µg/mL (≈ 18.1 µM)	50 to 69%	2 µg/mL (≈ 3.61 µM)	10 µg/mL (≈ 18.1 µM)	> 50 µg/mL	–
COCCO[C@@H](Cn1c(=O)n([C@@H]2CCNC2=O)c(=O)c2c(C)c(-n3nccn3)sc21)c1cc(F)ccc1OC [Compound I-26, 1-((R)-2-(5-fluoro-2-methoxyphenyl)-2-(2-methoxy-ethoxy)ethyl)-5-methyl-3-((R)-2-oxopyrrolidin-3-yl)-6-(2H-1,2,3-triazol-2-yl)thieno[2,3-d]pyrimidine-2,4(1H,3H)-dione]	10 µg/mL (≈ 17.9 µM)	D (provided a compound having <25% control of barley powdery mildew)	10 µg/mL (≈ 17.9 µM)	> 50 µg/mL	> 50 µg/mL	> 50 µg/mL	70 to 84%	2 µg/mL (≈ 3.58 µM)	> 50 µg/mL	0.7 to 2 nM	2 to 10 nM	–	–	–	–	–	–	–	–	–	IC90 (Septoria tritici (St); 48 h): > 50 µg/mL
COc1ccc(F)cc1[C@H](Cn1c(=O)n([C@@H]2CCN(C(C)C)C2=O)c(=O)c2c(C)c(-n3nccn3)sc21)OCCO [Compound I-85, 1-((R)-2-(5-fluoro-2-methoxyphenyl)-2-(2-hydroxy-ethoxy)ethyl)-3-((S)-1-isopropyl-2-oxopyrrolidin-3-yl)-5-methyl-6-(2H-1,2,3-triazol-2-1)thieno[2,3-d]pyrimidine-2,4(1H,3H)-dione]	–	C (provided a compound having from 25 to 49% control of barley powdery mildew)	–	–	–	–	–	–	–	–	10 to 100 nM	2 µg/mL (≈ 3.41 µM)	2 µg/mL (≈ 3.41 µM)	> 50 µg/mL	2 µg/mL (≈ 3.41 µM)	2 µg/mL (≈ 3.41 µM)	70 to 84%	2 µg/mL (≈ 3.41 µM)	2 µg/mL (≈ 3.41 µM)	> 50 µg/mL	MIC (C. krusei ATCC 6258): 2.1 to 4 µg/mL (≈ 3.58 to 6.82 µM); MIC (C. albicans ATCC 90028): 2.1 to 4 µg/mL (≈ 3.58 to 6.82 µM); MIC [7]: 2.1 to 4 µg/mL (≈ 3.58 to 6.82 µM)
